Assay results as given in PMC10501326, “A Phase I Study of the Pan-Notch Inhibitor CB-103 for Patients with Advanced Adenoid Cystic Carcinoma and Other Tumors” (Cancer Research Communications, 2023).
Where “and” joins values, the source holds several entries; their conditions need not be identical. Equal values may be shown once.

Tested on: advanced solid tumors, adenoid cystic carcinoma (ACC)
Assay: Antitumor efficacy and survival (RECIST v1.1 response, CBR, PFS, OS)
Assay type: in vivo, human
Source text: The study enrolled adults with histologically confirmed, locally advanced and/or metastatic solid tumors who had progressed on at least one line of prior systemic therapy (except for ACC) and relapsed/refractory T-ALL/LBL for whom no standard therapy was available. In dose escalation, participants with solid tumors with known or frequent Notch pathway–activating mutations were eligible (breast cancer, gastrointestinal tumors, hepatocellular carcinoma, osteosarcoma, malignant glomus tumor, and ACC), while the confirmatory cohort planned to enroll participants with selected tumor types (including T-ALL/LBL) and confirmed Notch pathway activation. Key eligibility criteria included patients ≥18 years of age with evaluable disease, Eastern Cooperative Oncology Group (ECOG) performance status 0–1, able to swallow capsules, and adequate organ function. Participants were excluded if they had clinically significant cardiac disease or thromboembolic events within the preceding 6 months, and drugs prolonging the QTc were avoided. A complete list of eligibility criteria is outlined in the Supplementary Materials and Methods.
Safety was assessed via monitoring of DLTs during the first treatment cycle, and of AEs, physical exam, and clinical lab results (hematology, coagulation, blood chemistry, urinalysis, and cardiac markers) throughout the study (Supplementary Table S1). 12-lead electrocardiograms and Holter safety monitoring with periodic cardiac imaging was employed. Efficacy assessments used RECIST v1.1 applied to CT/MRI scans performed at screening and every 8 weeks; or evaluated complete remission with complete hematologic recovery by National Comprehensive Cancer Network guideline criteria for T-ALL/T-LBL. Adherence to study drug administration was evaluated using both patient diaries and capsule counts.
The primary endpoint for dose escalation was the number of patients experiencing DLT during the first 28-day cycle of CB-103 and for the confirmatory phase, the incidence rate, severity, and relationship of AEs to CB-103. Secondary endpoints included assessment of clinical benefit rate [CBR; defined as achieving complete and/or partial response and/or stable disease (SD) at prespecified benchmarks], duration of response, progression-free survival (PFS) and overall survival (OS), and plasma pharmacokinetics.
The objective of the BLRM design ([10]) was to determine the MTD defined as the highest dose with less than 25% risk of the true DLT rate being above 33%. The MTD was considered reached if one of the following criteria was fulfilled: (i) if the posterior probability of the true DLT rate in the target interval (16%–33%) of the MTD was >50%, and (ii) at least 6 patients were treated at the MTD. Under this model, and accounting for dropouts and some additional patients enrolled to each cohort, approximately 55 patients were anticipated to enroll in dose escalation and approximately 45 patients in the confirmatory phase. Data were reported using 95% confidence intervals (CI) and survival endpoints (PFS, OS) are reported from the time of first treatment to the first of progression or death summarized by Kaplan–Meier estimates. All statistical analyses were analyzed using SAS v9.4 software.

[1] = ACC confirmatory cohort (n = 12), 500 mg once daily
[2] = All solid tumor patients (n = 76)

`CC(C)(C)c1ccc(Oc2ccc(N)cn2)cc1` [CB-103] was tested, and the “3-month PFS (95% CI)” value [1] was 10.9 (0.6–38.0), the “Best overall response: Complete response” value [1] was 0 n, % and the “Best overall response: Partial response” value [1] was 0 n, %. For the same compound, the “Best overall response: Progressive disease” value [1] was 7 (58) n, %, the “Best overall response: Stable disease” value [1] was 3 (25) n, % and the “Best overall response: Unevaluable” value [1] was 2 (17) n, %. The “Clinical benefit rate, 3 months (95% CI)” value [1] was 25.0 (5.5–57.2) — — %, the “Median OS (95% CI)” value [1] was 5.4 (1.3–5.4) months and the “Median PFS (95% CI)” value [1] was 1.4 (0.8–2.3) months. For the same compound, the “Overall survival: No. of deaths” value [1] was 4 (33) n, %, the “Progression-free survival: No. of events” value [1] was 10 (83) n, % and the “3-month PFS (95% CI)” value (All patients with ACC (n = 40)) was 46.8 (30.4–61.7). For the same compound, the “6-month OS (95% CI)” value (All patients with ACC (n = 40)) was 72.4 (53.1–84.8) %, the “6-month PFS (95% CI)” value (All patients with ACC (n = 40)) was 18.6 (7.9–32.8) % and the “9-month PFS (95% CI)” value (All patients with ACC (n = 40)) was 6.2 (1.1–17.8). The “12-month OS (95% CI)” value (All patients with ACC (n = 40)) was 57.3 (37.5–73.0) %, the “12-month PFS (95% CI)” value (All patients with ACC (n = 40)) was 6.2 (1.1–17.8) and the “Best overall response: Complete response” value (All patients with ACC (n = 40)) was 0 n, %. For the same compound, the “Best overall response: Partial response” value (All patients with ACC (n = 40)) was 0 n, %, the “Best overall response: Progressive disease” value (All patients with ACC (n = 40)) was 13 (33) n, % and the “Best overall response: Stable disease” value (All patients with ACC (n = 40)) was 23 n, % and 23 (58%) n, % and 23 (58) n, %. For the same compound, the “Best overall response: Unevaluable” value (All patients with ACC (n = 40)) was 4 (10) n, %, the “Clinical benefit rate, 3 months (95% CI)” value (All patients with ACC (n = 40)) was 57.5 (40.9–73.0) % and the “Clinical benefit rate, 6 months (95% CI)” value (All patients with ACC (n = 40)) was 27.5 (14.6–43.9) %. The “Clinical benefit rate, 9 months (95% CI)” value (All patients with ACC (n = 40)) was 2.5 (0.1–13.2) %, the “Median OS (95% CI)” value (All patients with ACC (n = 40)) was 18.4 months and the “Median PFS (95% CI)” value (All patients with ACC (n = 40)) was 2.5 (1.5–3.7) months. For the same compound, the “Overall survival: No. of deaths” value (All patients with ACC (n = 40)) was 15 (38) n, %, the “Progression-free survival: No. of events” value (All patients with ACC (n = 40)) was 35 (88) n, % and the “3-month PFS (95% CI)” value [2] was 38.7 (26.5–50.6). For the same compound, the “6-month OS (95% CI)” value [2] was 68.4 (54.4–78.9) %, the “6-month PFS (95% CI)” value [2] was 15.5 (7.5–26.0) % and the “9-month PFS (95% CI)” value [2] was 5.8 (1.7–14.3). For the same compound, the “12-month OS (95% CI)” value [2] was 41.6 (28.0–54.7) %, the “12-month PFS (95% CI)” value [2] was 3.9 (0.7–11.6) and the “Best overall response: Complete response” value [2] was 0 n, %. For the same compound, the “Best overall response: Partial response” value [2] was 0 n, %, the “Best overall response: Progressive disease” value [2] was 29 (38) n, % and the “Best overall response: Stable disease” value [2] was 37 (49%) n, % and 37 (49) n, %. For the same compound, the “Best overall response: Unevaluable” value [2] was 10 (13) n, %, the “Clinical benefit rate, 3 months (95% CI)” value [2] was 48.7 (37.0–60.4) % and the “Clinical benefit rate, 6 months (95% CI)” value [2] was 15.8 (8.4–26.0) %. The “Clinical benefit rate, 9 months (95% CI)” value [2] was 1.3 (0.0–7.1) %, the “Median OS (95% CI)” value [2] was 9.2 (6.3–18.4) months and the “Median PFS (95% CI)” value [2] was 1.9 (1.4–3.2) months. The “Overall survival: No. of deaths” value [2] was 33 (43%) n, % and 33 (43) n, %, the “Progression-free survival: No. of events” value [2] was 59 (78) n, % and the Objective responses (all 76 solid tumor patients) was “no objective responses”. The “Duration of stable disease on study” value (case: locoregionally recurrent ACC, NOTCH-activating mutation present) was 3 months, the “Tumor regression in right parapharyngeal mass” value (case: locoregionally recurrent ACC, NOTCH-activating mutation present (30 to 25 mm)) was −17% and the “Tumor regression in dominant liver lesion” value (case: patient with metastatic ACC with rapid progression prior to study entry (26.1–19.4 mm)) was −25.7%. The “Duration of stable disease on study” value (case: patient with metastatic ACC, dominant liver lesion) was 8 months, the “Median OS” value (heavily pretreated ACC cohort) was “under 2 years” and the “Duration of SD” value (one patient, NOTCH1-activated metastatic ACC with tumor BCL2 overexpression, 250 mg twice daily) was 3 months. For the same compound, the “ACC patients exhibiting SD” value (patients with ACC (n = 40)) was 58%.
